Key:
Assay in all cases: area over the GR curve, 72 h; higher = more effect;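 also: Dye Drop or Deep Dye Drop imaging of viable cells in 384-well plates (Hoechst nuclei, LIVE/DEAD dye), nine half-log doses, GR normalized to DMSO controls and time-zero plates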
184A1 = system: 184A1
CAL51 = system: CAL51
CAL851 = system: CAL851
CAMA1 = system: CAMA1
EFM19 = system: EFM19
HCC1806 = system: HCC1806
HCC70 = system: HCC70
HS578T = system: HS578T
MCF7 = system: MCF7
SUM229PE = system: SUM229PE
SUM44PE = system: SUM44PE
ZR751 = system: ZR751

Compound | area over the GR curve (184A1) | area over the GR curve (CAL51) | area over the GR curve (CAL851) | area over the GR curve (CAMA1) | area over the GR curve (EFM19) | area over the GR curve (HCC1806) | area over the GR curve (HCC70) | area over the GR curve (HS578T) | area over the GR curve (MCF7) | area over the GR curve (SUM229PE) | area over the GR curve (SUM44PE) | area over the GR curve (ZR751)
COc1ccc2c(c1)[C@]1(C[C@H]1c1ccc3c(/C=C/c4ccc(CN5C[C@@H](C)O[C@@H](C)C5)cc4)n[nH]c3c1)C(=O)N2 | 0.668 GR | 0.562 GR | 0.761 GR | 0.587 GR | 0.397 GR | 0.94 GR | 1.11 GR | 0.941 GR | 0.906 GR | 0.675 GR | 0.898 GR | 0.451 GR
COc1cccc(OCCCN)c1-c1cc(Nc2cnc(C#N)cn2)n[nH]1 | 0.0009 GR | 0.528 GR | 0.608 GR | 0.483 GR | 0.041 GR | 1.39 GR | 1.64 GR | 1.3 GR | 0.794 GR | 0.342 GR | 0.75 GR | 0.3 GR
CC(=O)Nc1cccc(-n2c(=O)n(C3CC3)c(=O)c3c(Nc4ccc(I)cc4F)n(C)c(=O)c(C)c32)c1 (max 1 µM) | 0.659 GR | 0.0662 GR | 0.41 GR | 0.169 GR | -0.1 GR | 0.104 GR | 0.692 GR | 0.491 GR | 0.277 GR | 0.472 GR | 0.186 GR | 0.328 GR
CCc1cnn2c(NCc3ccc[n+]([O-])c3)cc(N3CCCC[C@H]3CCO)nc12 (max 1 µM) | 0.636 GR | 0.599 GR | 0.686 GR | 0.606 GR | 0.459 GR | 0.643 GR | 0.803 GR | 0.616 GR | 0.644 GR | 0.532 GR | 0.334 GR | 0.468 GR
CC(=O)c1c(C)c2cnc(Nc3ccc(N4CCNCC4)cn3)nc2n(C2CCCC2)c1=O (max 3.162 µM) | 0.375 GR | 0.25 GR | -0.0843 GR | 0.353 GR | 0.179 GR | 0.146 GR | -0.0552 GR | 0.32 GR | 0.346 GR | 0.223 GR | 0.216 GR | 0.12 GR
CCc1cncnc1N1CCN(Cc2nc3ccc(C(F)(F)F)cc3[nH]2)CC1 (max 10 µM) | -0.0012 GR | 0.0491 GR | -0.0315 GR | 0.0582 GR | -0.0563 GR | -0.0429 GR | -0.077 GR | 0.0252 GR | 0.0548 GR | 0.0479 GR | 0.0041 GR | -0.0587 GR
CCCCOc1c(C(=O)c2c(F)cc(C)cc2F)c[nH]c2nncc1-2 (max 10 µM) | 0.954 GR | 0.226 GR | 0.672 GR | 0.842 GR | 0.497 GR | 0.455 GR | 0.914 GR | 0.651 GR | 0.697 GR | 0.662 GR | 1.12 GR | 0.209 GR
CCN1CCN(Cc2ccc(Nc3ncc(F)c(-c4cc(F)c5nc(C)n(C(C)C)c5c4)n3)nc2)CC1 (max 10 µM) | 0.635 GR | 0.578 GR | 0.228 GR | 0.613 GR | 0.478 GR | 0.392 GR | 0.145 GR | 0.634 GR | 0.702 GR | 0.383 GR | 0.651 GR | 0.429 GR
CNc1nc(-c2ccc3c(N)n[nH]c3c2)cc(N2C[C@@H](C(=O)NC3CCCCC3)CC[C@H]2C)n1 (max 10 µM) | 0.135 GR | 0.0516 GR | 0.201 GR | -0.0192 GR | 0.293 GR | 0.0151 GR | 0.288 GR | 0.157 GR | 0.256 GR | 0.0671 GR | 0.165 GR | 0.257 GR
CO[C@@H](C)Cn1c(=O)n(C)c2cnc3ccc(-c4cncc(C(C)(C)O)c4)cc3c21 (max 10 µM) | 0.761 GR | 0.631 GR | 0.771 GR | 0.972 GR | 0.813 GR | 0.43 GR | 0.8 GR | 0.688 GR | 0.834 GR | 0.409 GR | 1.02 GR | 0.691 GR
Cc1nn(C)c(COc2ccc(N3CCN(S(=O)(=O)N(C)C)CC3)cc2)c1-c1cccc2c(CCCOc3cccc4ccccc34)c(C(=O)O)n(CCN3CCOCC3)c12 (max 10 µM) | 0.0952 GR | 0.0073 GR | 0.0108 GR | 0.0026 GR | -0.0581 GR | -0.0123 GR | 0.0018 GR | -0.0079 GR | -0.0002 GR | 0.0397 GR | 0.14 GR | -0.0518 GR
CN(C)CC[C@H](CSc1ccccc1)Nc1ccc(S(=O)(=O)NC(=O)c2ccc(N3CCN(Cc4ccccc4-c4ccc(Cl)cc4)CC3)cc2)cc1[N+](=O)[O-] [ABT-737] (max 10 µM) | 0.153 GR | 0.0125 GR | -0.0516 GR | 0.0008 GR | 0.111 GR | -0.111 GR | 0.0935 GR | 0.026 GR | 0.0119 GR | 0.0913 GR | -0.0051 GR | 0.0133 GR
C=CCn1c(=O)c2cnc(Nc3ccc(N4CCN(C)CC4)cc3)nc2n1-c1cccc(C(C)(C)O)n1 [AZD1775] (max 10 µM) | 0.366 GR | 0.461 GR | 0.491 GR | 0.0364 GR | 0.23 GR | 0.847 GR | 1.15 GR | 0.759 GR | 0.692 GR | 0.756 GR | 0.502 GR | 0.143 GR
CNC(=O)c1cccc(-c2ccc3c(N4CCOC[C@@H]4C)nc(N4CCOC[C@@H]4C)nc3n2)c1 [AZD2014] (max 10 µM) | 0.729 GR | 0.485 GR | 0.637 GR | 0.873 GR | 0.829 GR | 0.349 GR | 0.778 GR | 0.504 GR | 0.854 GR | 0.484 GR | 0.917 GR | 0.8 GR
NC1(C(=O)N[C@@H](CCO)c2ccc(Cl)cc2)CCN(c2nc[nH]c3nccc2-3)CC1 [AZD5363] (max 10 µM) | 0.122 GR | 0.161 GR | 0.106 GR | 0.583 GR | 0.304 GR | 0.0705 GR | 0.661 GR | 0.248 GR | 0.212 GR | 0.234 GR | 0.596 GR | 0.0911 GR

Reference: the supplement of paper PMC9663587
